# From the supplement of paper PMC6045584
# ± gives the standard deviation of the averaged measurements.
# Key:
# SALINOMYCIN = compound: CC[C@@H](C(=O)[C@@H](C)[C@@H](O)[C@H](C)[C@@H]1O[C@@H]([C@@H](CC)C(=O)O)CC[C@@H]1C)[C@H]1O[C@]2(C=C[C@@H](O)[C@]3(CC[C@@](C)([C@H]4CC[C@](O)(CC)[C@H](C)O4)O3)O2)[C@H](C)C[C@@H]1C [SALINOMYCIN]; assay: surviving fraction relative to DMSO-only wells; higher = less growth inhibition; details: exposure time: 5 days
# Method in brief: (§1)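 Tumour cell lines in log phase were plated in 384-well plates at 250–500 cells per well, then, after 24 hours, exposed continuously for five days to inhibitors at 0.5, 1, 5, 10, 50, 100, 500 and 1000 nM. Viability came from CellTiter-Glo luminescence, and surviving fraction is that signal normalised to the median of DMSO-only wells. Plates were read after 10 minutes at room temperature, and each line, screened three times, was kept only when replicate Pearson r was >0.7 and median Z' was >0.3.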
# RESVERATROL = compound: Oc1ccc(/C=C/c2cc(O)cc(O)c2)cc1 [RESVERATROL]; assay: as above; details: exposure time: 5 days
# Method in brief: as §1
Test System,surviving fraction (SALINOMYCIN; 0.5 nM),surviving fraction (SALINOMYCIN; 1 nM),surviving fraction (SALINOMYCIN; 5 nM),surviving fraction (SALINOMYCIN; 10 nM),surviving fraction (SALINOMYCIN; 50 nM),surviving fraction (SALINOMYCIN; 100 nM),surviving fraction (SALINOMYCIN; 500 nM),surviving fraction (SALINOMYCIN; 1000 nM),surviving fraction (RESVERATROL; 0.5 nM),surviving fraction (RESVERATROL; 1 nM),surviving fraction (RESVERATROL; 5 nM),surviving fraction (RESVERATROL; 10 nM),surviving fraction (RESVERATROL; 50 nM),surviving fraction (RESVERATROL; 100 nM),surviving fraction (RESVERATROL; 500 nM),surviving fraction (RESVERATROL; 1000 nM)
S68 BREAST,0.923 ± 0.097,0.998 ± 0.14,1.37 ± 0.22,1.04 ± 0.29,0.934 ± 0.22,0.731 ± 0.079,0.337 ± 0.099,0.209 ± 0.03,0.829 ± 0.095,0.815 ± 0.21,0.993 ± 0.36,0.818 ± 0.095,1.14 ± 0.17,1 ± 0.059,1.1 ± 0.12,0.878 ± 0.066
SKBR3 BREAST,1 ± 0.13,1.09 ± 0.2,0.927 ± 0.12,0.997 ± 0.051,1.05 ± 0.12,0.98 ± 0.17,0.238 ± 0.025,0.109 ± 0.015,0.966 ± 0.15,1.06 ± 0.048,1.1 ± 0.1,1.07 ± 0.076,1.08 ± 0.053,1.09 ± 0.028,1.11 ± 0.12,1.04 ± 0.055
BT20 BREAST,0.964 ± 0.16,1.05 ± 0.14,1.12 ± 0.076,1.3 ± 0.25,1.32 ± 0.19,1.19 ± 0.25,1.22 ± 0.31,1.13 ± 0.3,1.05 ± 0.052,1.13 ± 0.1,1.13 ± 0.038,1.15 ± 0.059,1.06 ± 0.037,1.12 ± 0.078,1.12 ± 0.19,1.25 ± 0.12
JIMT1 BREAST,0.96 ± 0.014,0.977 ± 0.021,0.979 ± 0.021,0.999 ± 0.021,0.988 ± 0.033,0.95 ± 0.013,0.51 ± 0.024,0.356 ± 0.02,1.03 ± 0.038,1.04 ± 0.042,1.05 ± 0.047,1.01 ± 0.029,1.01 ± 0.016,1.05 ± 0.027,1 ± 0.035,1.05 ± 0.021
HCC1954 BREAST,0.944 ± 0.29,0.82 ± 0.39,0.919 ± 0.36,1.03 ± 0.088,0.953 ± 0.011,0.725 ± 0.04,0.295 ± 0.0032,0.172 ± 0.023,1.06 ± 0.055,1.12 ± 0.012,1.21 ± 0.065,1.39 ± 0.098,1.03 ± 0.025,1.25 ± 0.19,0.997 ± 0.065,0.934 ± 0.064
VP229 BREAST,0.949 ± 0.074,0.907 ± 0.022,1.04 ± 0.15,0.891 ± 0.12,0.831 ± 0.14,0.52 ± 0.021,0.139 ± 0.017,0.133 ± 0.015,1.19 ± 0.11,1.32 ± 0.14,1.19 ± 0.12,1.2 ± 0.17,1.09 ± 0.18,1.22 ± 0.095,1.23 ± 0.16,1.12 ± 0.19
NOS1 BONE,1.01 ± 0.071,1.07 ± 0.15,1.09 ± 0.025,1.05 ± 0.066,1.06 ± 0.083,1.09 ± 0.062,0.0907 ± 0.013,0.0537 ± 0.007,1.08 ± 0.18,0.975 ± 0.046,1.07 ± 0.028,1.137 ± 0.0086,1.21 ± 0.22,1.35 ± 0.13,1.16 ± 0.032,1.17 ± 0.053
SG31 HEADNECK,1.08 ± 0.15,1.12 ± 0.036,1.07 ± 0.089,0.888 ± 0.097,0.924 ± 0.048,0.863 ± 0.093,0.413 ± 0.033,0.317 ± 0.047,1.1 ± 0.23,1.23 ± 0.18,1.03 ± 0.095,1.13 ± 0.095,1.05 ± 0.15,0.975 ± 0.19,1.13 ± 0.18,1.42 ± 0.32
OS25HAL BONE,0.952 ± 0.016,0.943 ± 0.012,0.964 ± 0.02,0.932 ± 0.02,0.979 ± 0.031,0.792 ± 0.017,0.122 ± 0.014,0.0527 ± 0.0015,1.01 ± 0.026,1.11 ± 0.059,1.03 ± 0.032,0.996 ± 0.024,1.001 ± 0.0068,1.08 ± 0.04,1.03 ± 0.018,1.16 ± 0.027
22RV1 PROSTATE,1.01 ± 0.075,0.987 ± 0.053,1 ± 0.06,0.942 ± 0.059,0.817 ± 0.031,0.448 ± 0.038,0.195 ± 0.021,0.125 ± 0.015,1.01 ± 0.05,1.04 ± 0.076,1.05 ± 0.067,1.04 ± 0.024,0.981 ± 0.015,1.09 ± 0.032,0.961 ± 0.12,1.05 ± 0.079
KPD BONE,0.931 ± 0.046,0.942 ± 0.013,1 ± 0.064,0.979 ± 0.018,0.93 ± 0.032,0.7467 ± 0.005,0.235 ± 0.015,0.128 ± 0.016,0.997 ± 0.054,1.03 ± 0.032,1.08 ± 0.04,1.09 ± 0.063,1.02 ± 0.017,1.08 ± 0.041,0.969 ± 0.044,1.05 ± 0.028
HUO3N1 BONE,1.01 ± 0.052,0.984 ± 0.073,1.01 ± 0.04,1.02 ± 0.071,0.844 ± 0.012,0.51 ± 0.023,0.167 ± 0.0067,0.151 ± 0.0097,1.01 ± 0.036,1.07 ± 0.037,1.04 ± 0.034,1.06 ± 0.06,1.09 ± 0.035,1.1 ± 0.037,1.07 ± 0.029,1.01 ± 0.067
OSHN BONE,1.02 ± 0.019,1.01 ± 0.011,1.01 ± 0.016,1.02 ± 0.02,1.01 ± 0.018,0.966 ± 0.013,0.247 ± 0.005,0.115 ± 0.0046,1.02 ± 0.022,1.106 ± 0.0076,1.07 ± 0.017,1.099 ± 0.004,1.06 ± 0.026,1.13 ± 0.03,1.09 ± 0.02,1.11 ± 0.024
C33A CERVIX,0.812 ± 0.13,0.769 ± 0.16,1 ± 0.12,1.05 ± 0.21,1.08 ± 0.035,1.08 ± 0.13,0.328 ± 0.024,0.25 ± 0.0067,0.928 ± 0.045,0.933 ± 0.052,0.956 ± 0.14,0.998 ± 0.032,0.978 ± 0.028,0.974 ± 0.096,0.946 ± 0.023,0.958 ± 0.049
SUM149 BREAST,0.981 ± 0.06,0.972 ± 0.14,1.02 ± 0.13,0.392 ± 0.03,1.06 ± 0.092,0.836 ± 0.052,0.424 ± 0.042,0.356 ± 0.01,0.958 ± 0.048,1.02 ± 0.07,1.04 ± 0.082,0.958 ± 0.013,1.07 ± 0.048,0.989 ± 0.062,1.09 ± 0.034,1.09 ± 0.1
ASKA SYNOVIAL,1.05 ± 0.088,0.926 ± 0.086,1.02 ± 0.1,0.582 ± 0.048,1.14 ± 0.034,1.03 ± 0.016,0.797 ± 0.073,0.441 ± 0.037,1.12 ± 0.019,1.15 ± 0.089,1.22 ± 0.077,1.25 ± 0.058,1.12 ± 0.13,1.22 ± 0.051,1.1 ± 0.072,1.13 ± 0.1
SIHA CERVIX,0.875 ± 0.013,0.878 ± 0.011,0.935 ± 0.073,0.967 ± 0.047,0.9557 ± 0.0072,0.928 ± 0.052,0.513 ± 0.038,0.419 ± 0.014,1.02 ± 0.034,1.05 ± 0.041,1.116 ± 0.011,1.14 ± 0.066,1.07 ± 0.072,1.09 ± 0.045,1.09 ± 0.066,1.15 ± 0.02
SUM159 BREAST,0.979 ± 0.033,0.92 ± 0.13,0.865 ± 0.25,0.934 ± 0.12,0.648 ± 0.14,0.475 ± 0.18,0.32 ± 0.088,0.268 ± 0.092,1.04 ± 0.028,1.1 ± 0.024,1.06 ± 0.03,1.06 ± 0.021,1.033 ± 0.0053,1.07 ± 0.016,1.08 ± 0.018,1.11 ± 0.017
HOS BONE,0.99 ± 0.0076,0.969 ± 0.0052,0.997 ± 0.023,0.966 ± 0.0082,1.03 ± 0.012,0.858 ± 0.032,0.0367 ± 0.0031,0.0627 ± 0.019,1.016 ± 0.0053,1.05 ± 0.03,1.018 ± 0.009,1.02 ± 0.021,1.03 ± 0.012,1.06 ± 0.036,1.05 ± 0.024,1.07 ± 0.025
LM7 BONE,1.01 ± 0.021,1.01 ± 0.068,1.06 ± 0.041,1.11 ± 0.065,1.05 ± 0.053,1.09 ± 0.051,0.588 ± 0.04,0.397 ± 0.02,1.05 ± 0.036,1.05 ± 0.025,1.1 ± 0.045,1.18 ± 0.061,1.07 ± 0.067,1.15 ± 0.054,1.04 ± 0.034,1.12 ± 0.048
